The source of these data is paper PMC9926234, “Iterative computational design and crystallographic screening identifies potent inhibitors targeting the Nsp3 macrodomain of SARS-CoV-2” (Proceedings of the National Academy of Sciences of the …, 2023).

One may read the IC50 as the concentration that gives 50% inhibition. By Ki is commonly meant the dissociation constant of the complex between target and ligand, obtained from inhibition or displacement.

Molecules are shown by their SMILES. “And” between values parts separate entries of the source, which are not always exact repeats. Equal entries are not always repeated. Where two headings read alike, the source gives them in different places.

Assay [1] deals with T1, SARS-CoV-2 NSP3 Mac1 (Severe acute respiratory syndrome coronavirus 2, UniProt P0DTD1). Nature of the assay: biochemical. The class given is binding.
Assay [2] has as its target T1, SARS-CoV-2 NSP3 Mac1. Type of assay: binding. The note with it: for 1-BDC (PanDDA): 1 minus background density correction; for 1-BDC (PanDDA) / Refined occupancy: crystal soaking of Mac1; for Refined occupancy: ligand occupancy after refinement (phenix.refine).
Assay [3] concerns SARS-CoV-2 NSP3 Mac1. Nature of the assay: Overall hit call (binding in crystallographic soaking or the HTRF-based binding assay). From the text:
Supplement pnas.2212931120.sd01.xlsx, sheet "Compound Summary" | column: HIT*

Assay [4] concerns the target T1, SARS-CoV-2 NSP3 Mac1. The arrangement: contains a conserved macrodomain enzyme (Mac1); Differential scanning fluorimetry of Mac1, maximum thermal upshift. The note with it: maximum shift over tested concentrations; binder.
Where [5] appears, read: HTRF ADPr-conjugated peptide displacement, read-out: IC50.
[6] abbreviates: PanDDA 1-BDC of the event, compound stock 100 mM, Echo dispense volume 80 nl.
Where [7] appears, read: PanDDA event map 1-BDC, crystal soak, Compound_concentration 100 mM, PanDDA run dmso_34 or nohits_35 per dataset.
Where [8] appears, read: crystal soak, Compound_concentration 100 mM, Echo dispense 40 nl, PanDDA run dmso_34 or nohits_35 per dataset.
Setting [9] is: crystal soak, compound stock 100 mM, Echo dispense volume 80 nl.
Setting [10] is: ligand modeled in structure, compound stock 100 mM, Echo dispense volume 80 nl.
Setting [11] is: HTRF ADPr-peptide displacement from SARS-CoV-2 Mac1, read-out: IC50.
[12] abbreviates: PanDDA event map, crystal soak, Compound_concentration 100 mM, Echo_dispense_volume 40 nl.
Where [13] appears, read: crystal soak, Compound_concentration 100 mM, Echo_dispense_volume 40 nl, PanDDA run (background map) dmso_34, nohits_35 or nohits_62.

Consider `O=C(O)C(O)C1CCCN(c2ncnc3[nH]c4cc(F)ccc4c23)C1` (centres unmarked) [LL114_0036], for which the half-inhibitory concentration (IC50) in assay [1] (setting [5]) was 34.1 µM. Moreover, in assay [1] (read-out: Ki***), the Ki is 29.7 µM. Moreover, the 1-BDC in assay [2] (setting [6]) stood at 0.24; in assay [2] (setting [7]) it was 0.2. Further, the “1-BDC (PanDDA)” value in assay [2] (PanDDA event map) turned out to be 0.24. Also, the “PanDDA hit?” value in assay [2] (setting [8]) and in assay [2] (setting [9]) was “TRUE” throughout. In assay [2] (setting [10]), the “Modeled?” value was “TRUE”. The same compound had a Refined occupancy in assay [2] of 48. In assay [3], the “HIT*” value is “Y”.
In the case of `O[C@H]1CCCC[C@H]1Nc1ncnc2[nH]ccc12` (relative stereo) [SRH-0015], the IC50 in assay [1] (IC50, HTRF ADPr-peptide displacement from SARS-CoV-2 Mac1) worked out at 132 µM; in assay [1] (IC50 [µM], HTRF ADPr-conjugated peptide displacement) it was 132 µM. This compound also came in with a Ki in assay [1] (Ki*** [µM]) of 115 µM. This compound also came in with a 1-BDC in assay [2] (setting [7]) of 0.13. For the same compound, the “1-BDC (PanDDA)” value in assay [2] (PanDDA event map) was 0.13. Further, in assay [2] (setting [8]), the “PanDDA hit?” value is recorded as “TRUE”. Moreover, the “Modeled?” value in assay [2] (ligand modeled in this dataset, crystal soak, Compound_concentration 100 mM) is listed as “TRUE”. The compound further showed a Refined occupancy in assay [2] of 26. In assay [3], the “HIT*” value was “Y”.
As to `O=C(O)CC1CN(c2ncnc3[nH]c4cc(F)ccc4c23)CC2(CCC2)O1` (centres unmarked) [LL114_0024], the IC50 is 19.7 µM in assay [1] (setting [5]); 19.6 µM and 20 µM in assay [1] (setting [11]). The inhibition constant (Ki) in assay [1] (read-out: Ki***) was 17.1 µM. In addition, the 1-BDC in assay [2] (setting [6]) was found to be 0.11; in assay [2] (setting [7]) it was 0.06. The “1-BDC (PanDDA)” value in assay [2] (PanDDA event map) turned out to be 0.11. The “PanDDA hit?” value in assay [2] (setting [8]) and in assay [2] (setting [9]) was “TRUE” in each case. In addition, in assay [2] (setting [10]), the “Modeled?” value is “TRUE”. The same compound displayed a Refined occupancy in assay [2] of 22. The “HIT*” value in assay [3] is listed as “Y”.
On to `O=C(O)C1(F)CN(c2ncnc3[nH]c4cc(F)ccc4c23)CC12COC2` (centres unmarked) [LL123_0031], for which the IC50 in assay [1] (setting [5]) was found to be 23.2 µM; in assay [1] (setting [11]), 23 µM. Also, in assay [1] (read-out: Ki***), the inhibition constant (Ki) is 20.2 µM. The compound also gave a 1-BDC in assay [2] (setting [6]) of 0.08. In addition, the “1-BDC (PanDDA)” value in assay [2] (PanDDA event map) worked out at 0.08. Also, the “PanDDA hit?” value in assay [2] (setting [9]) is given as “TRUE”. In assay [2] (setting [10]), the “Modeled?” value is on record as “TRUE”. The compound further gave a Refined occupancy in assay [2] of 16. Further, the “HIT*” value in assay [3] was “Y”.
Turning to `OCc1cn(C2CCCN(c3ncnc4[nH]ccc34)C2)nn1` (centres unmarked) [Z7864, ZINC000292637864], the “DSF max dTma” value in assay [4] turned out to be 0.32 °C.
`Nc1ncnc(N2CCCC(CCC(=O)O)C2)c1Cl` (centres unmarked) [R6134, REAL250003296134]: in assay [4], the “DSF max dTma” value was 0.34 °C.
`O=C(NCc1c(C(=O)O)[nH]c2ccccc12)c1ccc2[nH]cnc2c1` [Z8539_2005]: the IC50 in assay [1] (setting [5]) was found to be 24.5 µM. Also, the Ki in assay [1] (read-out: Ki***) is 21.3 µM. Moreover, the 1-BDC is 0.21 and 0.19 in assay [2] (PanDDA event map background density correction, crystal soak, compound concentration 100 mM); 0.24 in assay [2] (setting [12]). The “1-BDC (PanDDA)” value in assay [2] (PanDDA event map) amounted to 0.19. The “PanDDA hit?” value in assay [2] (setting [13]) was “TRUE”. Also, in assay [2] (ligand modeled in the crystal structure, crystal soak, compound concentration 100 mM), the “Modeled?” value was “TRUE”. The compound also registered a Refined occupancy in assay [2] of 38. Moreover, in assay [3], the “HIT*” value is “Y”.
Take `O=C(O)C1CN(c2ncnc3[nH]c4cc(F)ccc4c23)CC12CCC2` (centres unmarked) [LL123_0020]: the IC50 in assay [1] (setting [5]) amounted to 13.5 µM; in assay [1] (setting [11]), 14 µM. The Ki in assay [1] (read-out: Ki***) was 11.7 µM. Further, the 1-BDC in assay [2] (setting [6]) was 0.12 and 0.17; in assay [2] (setting [7]), 0.13; in assay [2] (setting [12]), 0.17. Besides, the “1-BDC (PanDDA)” value in assay [2] (PanDDA event map) came out at 0.17. Also, the “PanDDA hit?” value in assay [2] (setting [8]), in assay [2] (setting [13]) and in assay [2] (setting [9]) was “TRUE” in each case. Besides, in assay [2] (ligand modeled, crystal soak, Compound_concentration 100 mM, Echo_dispense_volume 40 nl), the “Modeled?” value was “TRUE”. The compound further yielded a Refined occupancy in assay [2] of 34. For the same compound, the “HIT*” value in assay [3] was “Y”.
Regarding `NC(=O)Nc1ccc(C(=O)NC2c3cccc(O)c3CC2C(=O)O)cc1` (centres unmarked) [Z8539_0041, 8539_0041], the “DSF max dTma” value in assay [4] turned out to be 6 °C.
The same measure, in the same setting: the value for `Cc1nnc(CNc2cnc(N)c(Cl)n2)n1C1CC1` [Z1964, ZINC000893101964] was 0.12 °C.
